For one test, the target named is RON (Homo sapiens, UniProt Q04912). In words: Evaluation of inhibitory activity against RON (TR-FRET kinase assay). It counts as biochemical. The following applies: RON protein, ULight-labeled Poly GT substrate. As for the experimental part:
In order to measure the inhibitory activity of each of the compounds of Examples against RON, the IC50 of each of the compounds was measured using Time-resolved fluorescence energy transfer (TR-FRET).
Specifically, the compound was prepared to a concentration of 1 mM in 100% DMSO and was diluted 10 times in a stepwise manner through 3-fold dilution. The compound (2 ul) diluted in a stepwise manner was added to a 96-well-plate containing 48 ul of a 1× kinase reaction buffer (50 mM HEPES (pH 7.4), 0.01% Tween-20, 5 mM DTT, 0.5 mM Na3VO4, 2 mM EGTA, 10 mM MgCl2).
The RON protein was diluted to a concentration of 49.3 nM in a RON storage buffer (50 mM Tris-HCl (pH 7.5), 150 mM NaCl, 0.5 mM EDTA, 0.02% Triton X-100), and then diluted again to a concentration of 0.4 nM in a 1×kinase reaction buffer. As a substrate cocktail, a RON-specific substrate mixed solution (40 uM ULight-labeled Poly GT, 100 nM ATP) was prepared at a concentration 2 times the final reaction concentration.
(§1) Thereafter, a 384-well-plate was prepared, and 2.5 μl of each of the diluted compounds of Examples was added to a corresponding well of experimental group wells, and 2.5 μl of a 4% DMSO solution was dispensed into high control wells and low control wells.
(§2) Thereafter, 2.5 μL of 0.4 nM RON was dispensed into each of the high control wells and the experimental group wells, and 2.5 μL of the 1× kinase reaction buffer was added to the low control wells, and all the wells were centrifuged at room temperature for 40 seconds at 1,000 RPM, and then incubated at room temperature for 20-30 minutes. Then, 5 uL of the substrate cocktail (2×) was dispensed into each well, and all the wells were centrifuged at room temperature for 40 seconds at 1,000 RPM, and then incubated at room temperature for 60 minutes. Thereafter, 5 uL of 30 mM EDTA was added to each well to terminate the reaction, and all the wells were then incubated again at room temperature for 5 minutes. Thereafter, 5 uL of a 4× phosphotyrosine antibody (Perkin Elmer) containing europium was added to each well, and all the wells were then incubated at room temperature for 60 minutes. After the incubation, the 384-well-plate was read with the Vison plate reader. In this case, the excitation wavelength was 340 nm, and the emission wavelength was 620 nm and 665 nm. The IC50 value of each compound of Examples was derived using the GraphPd Prism7 program.

Another test deals with cMET (Homo sapiens, UniProt P08581). The test is described as follows: Evaluation of inhibitory activity against MET (TR-FRET kinase assay). It counts as biochemical. The following applies: cMET protein, TK peptide substrate. Here is the method: In addition, in order to measure the enzyme activity inhibition for cMET, the evaluation was performed in the same manner as the enzyme activity inhibition measurement experiment for RON.
Chain of cMET (P08581 25-1390): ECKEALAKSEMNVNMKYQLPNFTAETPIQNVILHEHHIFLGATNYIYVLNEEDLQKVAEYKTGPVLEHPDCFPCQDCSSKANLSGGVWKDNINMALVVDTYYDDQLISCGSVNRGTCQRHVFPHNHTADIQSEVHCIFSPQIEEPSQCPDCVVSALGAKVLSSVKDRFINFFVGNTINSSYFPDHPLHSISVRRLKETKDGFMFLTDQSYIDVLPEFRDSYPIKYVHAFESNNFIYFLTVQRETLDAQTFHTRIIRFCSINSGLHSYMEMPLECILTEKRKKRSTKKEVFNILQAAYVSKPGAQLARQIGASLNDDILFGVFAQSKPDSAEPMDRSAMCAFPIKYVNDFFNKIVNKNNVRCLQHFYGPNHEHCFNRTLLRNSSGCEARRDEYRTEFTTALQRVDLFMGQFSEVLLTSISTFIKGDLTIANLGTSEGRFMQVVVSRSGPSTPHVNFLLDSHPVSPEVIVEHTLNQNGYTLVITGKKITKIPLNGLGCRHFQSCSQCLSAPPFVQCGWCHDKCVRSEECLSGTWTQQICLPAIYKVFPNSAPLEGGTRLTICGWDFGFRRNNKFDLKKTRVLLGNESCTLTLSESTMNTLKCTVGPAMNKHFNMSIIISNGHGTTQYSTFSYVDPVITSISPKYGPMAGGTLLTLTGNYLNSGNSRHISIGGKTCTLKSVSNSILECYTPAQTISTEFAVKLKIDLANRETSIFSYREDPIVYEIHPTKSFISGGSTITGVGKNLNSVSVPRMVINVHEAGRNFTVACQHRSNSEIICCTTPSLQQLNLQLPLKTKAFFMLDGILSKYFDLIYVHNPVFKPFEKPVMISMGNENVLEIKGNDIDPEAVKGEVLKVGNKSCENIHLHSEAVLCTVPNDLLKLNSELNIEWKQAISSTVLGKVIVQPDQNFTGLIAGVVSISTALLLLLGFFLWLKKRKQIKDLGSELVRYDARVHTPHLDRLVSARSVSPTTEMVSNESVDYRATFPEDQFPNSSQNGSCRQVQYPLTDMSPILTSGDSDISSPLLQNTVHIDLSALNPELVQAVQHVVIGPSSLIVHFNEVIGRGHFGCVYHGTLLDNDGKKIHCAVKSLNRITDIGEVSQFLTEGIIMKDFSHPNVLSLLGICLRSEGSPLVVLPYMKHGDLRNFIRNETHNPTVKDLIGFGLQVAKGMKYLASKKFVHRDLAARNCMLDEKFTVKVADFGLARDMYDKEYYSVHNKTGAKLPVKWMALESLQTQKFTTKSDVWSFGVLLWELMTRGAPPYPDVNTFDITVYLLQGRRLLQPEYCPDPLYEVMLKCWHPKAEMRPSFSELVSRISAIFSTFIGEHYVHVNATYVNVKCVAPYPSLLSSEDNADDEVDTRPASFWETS
Specifically, the compound was prepared to a concentration of 1 mM in 100% DMSO and was diluted 10 times in a stepwise manner through 3-fold dilution. The compound (2 ul) diluted in a stepwise manner was added to a 96-well-plate containing 48 ul of a 1× kinase reaction buffer (50 mM HEPES (pH 7.4), 0.05% BSA, 0.005% Tween-20, 1 mM DTT, 0.5 mM MnCl2, 20 mM MgCl2).
The cMET protein was diluted to a concentration of 263 nM in a cMET storage buffer (50 mM Tris-HCl (pH 7.5), 150 mM NaCl, 0.05% Brij35, 1 mM DTT, 10% Glycerol), and then diluted again to a concentration of 2 nM in a 1× kinase reaction buffer. As a substrate cocktail, a MET-specific substrate mixed solution (5 uM TK peptide, 10 mM ATP) was prepared at a concentration 2 times the final reaction concentration.
as §1
as §2, with “of 2” for “of 0.4”, “nM cMET” for “nM RON”, “the 1×kinase” for “the 1× kinase”, “of 90” for “of 30”

Structures are written as SMILES. A value given as a limit tells only on which side of the number the result lay.

Chain of RON (Q04912 25-1400, species assumed): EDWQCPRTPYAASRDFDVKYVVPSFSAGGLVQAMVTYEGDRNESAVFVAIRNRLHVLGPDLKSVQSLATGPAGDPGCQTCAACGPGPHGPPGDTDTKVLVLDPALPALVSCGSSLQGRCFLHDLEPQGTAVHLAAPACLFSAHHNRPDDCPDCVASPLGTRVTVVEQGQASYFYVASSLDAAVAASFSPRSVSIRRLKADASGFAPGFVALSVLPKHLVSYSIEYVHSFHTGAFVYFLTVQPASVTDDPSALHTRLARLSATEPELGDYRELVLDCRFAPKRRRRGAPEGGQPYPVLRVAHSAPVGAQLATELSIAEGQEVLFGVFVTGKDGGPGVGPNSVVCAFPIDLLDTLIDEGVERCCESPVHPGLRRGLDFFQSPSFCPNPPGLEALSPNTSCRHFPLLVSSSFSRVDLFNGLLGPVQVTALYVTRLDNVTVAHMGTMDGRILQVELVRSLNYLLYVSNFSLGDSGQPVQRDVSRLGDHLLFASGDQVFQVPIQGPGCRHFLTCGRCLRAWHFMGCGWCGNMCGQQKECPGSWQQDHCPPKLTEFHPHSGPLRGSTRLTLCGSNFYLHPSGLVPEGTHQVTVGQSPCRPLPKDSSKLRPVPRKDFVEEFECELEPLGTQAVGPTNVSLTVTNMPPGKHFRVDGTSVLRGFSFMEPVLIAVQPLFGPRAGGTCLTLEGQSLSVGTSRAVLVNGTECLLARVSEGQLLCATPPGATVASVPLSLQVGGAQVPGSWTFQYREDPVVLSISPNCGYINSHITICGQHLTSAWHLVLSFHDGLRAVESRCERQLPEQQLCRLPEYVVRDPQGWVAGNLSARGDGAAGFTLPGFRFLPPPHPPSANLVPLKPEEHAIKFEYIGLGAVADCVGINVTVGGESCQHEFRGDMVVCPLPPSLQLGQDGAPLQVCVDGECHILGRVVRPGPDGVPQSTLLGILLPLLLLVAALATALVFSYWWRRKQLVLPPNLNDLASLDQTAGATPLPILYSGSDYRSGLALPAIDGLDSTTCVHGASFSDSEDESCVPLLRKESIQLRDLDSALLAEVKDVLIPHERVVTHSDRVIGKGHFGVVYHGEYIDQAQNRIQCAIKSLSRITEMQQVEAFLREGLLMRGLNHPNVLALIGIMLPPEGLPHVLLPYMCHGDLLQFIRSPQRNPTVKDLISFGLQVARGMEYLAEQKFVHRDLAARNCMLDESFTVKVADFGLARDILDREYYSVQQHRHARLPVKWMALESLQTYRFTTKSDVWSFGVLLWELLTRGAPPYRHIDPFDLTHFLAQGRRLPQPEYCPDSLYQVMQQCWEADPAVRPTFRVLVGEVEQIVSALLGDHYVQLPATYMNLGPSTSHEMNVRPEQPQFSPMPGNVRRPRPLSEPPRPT

Consider `O=C(Nc1ccc(Oc2ccnc(Cl)c2)c(F)c1)c1ncn(-c2ccccc2)c1C(F)(F)F` [Example 24], for which the IC50 at RON and against cMET was more than 5 µM each time.
Regarding `Nc1nccc(Oc2ccc(NC(=O)c3ncn(-c4ccccc4)c3C(F)(F)F)cc2F)c1Cl` [Example 1, N-(4-((2-amino-3-chloropyridin-4-yl)oxy)-3-fluorophenyl)-1-phenyl-5-(trifluoromethyl)-1H-imidazole-4-carboxamide], the IC50 at RON is less than 0.05 µM; against cMET, 0.5 to 5 µM.
In the same order, the values of `Cc1ccc(-n2ncc(C(=O)Nc3ccc(Oc4ncnc(N)c4Cl)c(F)c3)c2C(F)(F)F)cc1` [Example 49] are more than 5 µM and more than 5 µM.
For `Cc1nc(C(=O)Nc2ccc(Oc3ccnc(N)c3Cl)c(F)c2)c(C)n1-c1ccccc1` [Example 14, N-(4-((2-amino-3-chloropyridin-4-yl)oxy)-3-fluorophenyl)-2,5-dimethyl-1-phenyl-1H-imidazole-4-carboxamide], in that order: 0.05 to 0.5 µM and 0.5 to 5 µM.
In the same order, the values of `Nc1ncnc(Oc2ccc(NC(=O)c3cnn(-c4ccccc4)c3)cc2F)c1Cl` [Example 57, N-(4-((6-amino-5-chloro-pyrimidin-4-yl)oxy)-3-fluorophenyl)-1-phenyl-1H-pyrazole-4-carboxamide] are more than 5 µM and more than 5 µM.
For `Cc1c(C(=O)Nc2ccc(Oc3ccnc(N)c3Cl)c(F)c2)nnn1-c1ccccc1F` [Example 42, N-(4-((2-amino-3-chloropyridin-4-yl)oxy)-3-fluorophenyl)-1-(2-fluorophenyl)-5-methyl-1H-1,2,3-triazole-4-carboxamide], the IC50 on RON lay in the range of 0.05 to 0.5 µM; at cMET, 0.5 to 5 µM.
As to `Nc1nccc(Oc2ccc(NC(=O)c3cnc(-c4ccccc4)s3)cc2F)c1Cl` [Example 30, N-(4-((2-amino-3-chloropyridin-4-yl)oxy)-3-fluorophenyl)-2-phenylthiazole-5-carboxamide], the IC50 is 0.05 to 0.5 µM at RON and more than 5 µM against cMET.
In the same order, the values of `O=C(Nc1ccc(Oc2ccnc(NC(=O)C3CC3)c2Cl)c(F)c1)c1ncn(-c2ccccc2)c1C(F)(F)F` [Example 23] are 0.05 to 0.5 µM and more than 5 µM.
On to `Nc1ncnc(Oc2ccc(NC(=O)c3cnn(-c4ccccc4)c3C(F)(F)F)cc2F)c1Cl` [Example 46, N-(4-((6-amino-5-chloro-pyrimidin-4-yl)oxy)-3-fluorophenyl)-1-phenyl-5-(trifluoromethyl)-1H-pyrazole-4-carboxamide], for which the IC50 against RON is 0.05 to 0.5 µM; against cMET, more than 5 µM.
For `Cc1nc(-c2ccccc2)sc1C(=O)Nc1ccc(Oc2ncnc(N)c2Cl)c(F)c1` [Example 61, N-[4-(6-amino-5-chloro-pyrimidin-4-yl)oxy-3-fluorophenyl]-4-methyl-2-phenyl-thiazole-5-carboxamide], the IC50 was 0.5 to 5 µM at RON and more than 5 µM at cMET.
With `Nc1ncnc(Oc2ccc(NC(=O)c3cnn(C4CCCOC4)c3C(F)(F)F)cc2F)c1Cl` (stereo not shown) [Example 50], the IC50 against RON was 0.5 to 5 µM; against cMET it was more than 5 µM.
`CC(C)(C)n1ncc(C(=O)Nc2ccc(Oc3ncnc(N)c3Cl)c(F)c2)c1C(F)(F)F` [Example 58, N-[4-(6-amino-5-chloro-pyrimidin-4-yl)oxy-3-fluorophenyl]-1-tert-butyl-5-(trifluoromethyl)pyrazole-4-carboxamide]: the IC50 was 0.5 to 5 µM against RON and more than 5 µM at cMET.
In the case of `Cc1nc(-c2ccccc2)sc1C(=O)Nc1ccc(Oc2ccnc(N)c2Cl)c(F)c1` [Example 31, N-(4-((2-amino-3-chloropyridin-4-yl)oxy)-3-fluorophenyl)-4-methyl-2-phenylthiazole-5-carboxamide], the IC50 against RON was 0.5 to 5 µM; at cMET, more than 5 µM.
With `C=CC(=O)Nc1nccc(Oc2ccc(NC(=O)c3ncn(-c4ccccc4)c3C(F)(F)F)cc2F)c1Cl` [Example 21], the IC50 was 0.05 to 0.5 µM on RON and more than 5 µM against cMET.

The values above are taken from US20240316017A1, “NOVEL PYRIDINE DERIVATIVE COMPOUND AS RON INHIBITOR” (LG CHEM, LTD., priority 2021, published 2024).
